Experimental findings from ChEMBL document CHEMBL3600289, “A double bond-conjugated dimethylnitrobenzene-type photolabile nitric oxide donor with improved two-photon cross section” (Bioorg Med Chem Lett, 2015) are described below.

The source made the active and inactive calls. The rule behind the calls is not given here.

A short description of data set [1]: Induction of nitric oxide release in water/DMSO mixture irradiated with 100W Hg lamp at 450 to 480 nm by […] complex-based ESR spin trapping method. The format is physicochemical. The conditions noted are these: buffer, 0.48 µM.
Data set [2] is described as follows: Induction of nitric oxide release in water/DMSO mixture irradiated with 100W Hg lamp at 330 to 380 nm at 1 mM by […] complex-based ESR spin trapping method. The format is physicochemical. Particulars: buffer, 0.38 µM.
Data set [3] has as its system HCT-116. In words: Induction of nitric oxide release in human HCT116 cells at 25 uM preincubated for 1 hr followed by irradiation with 950 nm pulse laser for 1 sec by confocal microscopic analysis. The format is functional, cell-based.
Data set [4] deals with HCT-116. As to the kind of experiment: Induction of nitric oxide release in human HCT116 cells at 25 uM incubated for 1 hr by confocal microscopic analysis in absence of irradiation. It is filed as functional, cell-based.
The nature of data set [5]: Induction of nitric oxide release in water/DMSO mixture irradiated with 100W Hg lamp at 450 to 480 nm at 1 mM by […] complex-based ESR spin trapping method. Particulars: buffer, 0.48 µM. It is filed as physicochemical.

For the molecule `Cc1cc(/C=C/c2ccc(C(=O)Nc3ccc(-c4c5ccc(=O)cc-5oc5cc(O)ccc45)c(C(=O)O)c3)cc2)cc(C)c1[N+](=O)[O-]`, the Activity entry in data set [1] is “Not Active”.

For the molecule `Cc1cc(/C=C/c2ccc(/C=C/c3ccc(-c4c5ccc(=O)cc-5oc5cc(O)ccc45)c(C(=O)O)c3)cc2)cc(C)c1[N+](=O)[O-]`, the outcome in data set [2] and in data set [5] was Active. In addition, the outcome in data set [3] was Active. Moreover, in data set [4], the result was inactive.
